Test results reported in ChEMBL document CHEMBL1201862, “PubChem BioAssay data set” (2004).
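Compound exposure: 48 hours, 5 concentrations, 96-well plates. The concentration for 50% growth inhibition is given as GI50.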 Active and inactive are the calls of the source. Cut-off read from the data, not from the text of the source: active = GI50 up to about 1.1 µM and inactive = higher.

Experiments:
Test in all cases: NCI anticancer screen, dose series, 48 h
[1] = system: HOP-62
[2] = system: UACC-257
[3] = system: MDA-N
[4] = system: NCI/ADR-RES
[5] = system: SK-MEL-28
[6] = system: Malme-3M
[7] = system: HL-60
[8] = system: SNB-19
[9] = system: SF-539
[10] = system: SK-OV-3
[11] = system: PC-3
[12] = system: SW-620
[13] = system: HCT-116
[14] = system: SNB-75
[15] = system: NCI-H460
[16] = system: SF-295

Measured: GI50

Cc1ccc(-c2cs/c(=N\c3ccccc3)n2NC(=O)c2ccncc2)cc1
inactive: [1] 39.4 µM | [2] 37.3 µM | [3] 25.4 µM | [4] 28.3 µM | [5] 36.6 µM | [6] 43.3 µM | [7] 19.4 µM | [8] 46.8 µM | [9] 69 µM | [10] 33.7 µM | [11] 27.4 µM | [12] 35.8 µM | [13] 31.8 µM | [14] 50.6 µM | [15] 36.3 µM | [16] 27.6 µM

NC(=O)c1ccc[n+](C2=C([N-]S(=O)(=O)c3ccccc3)C(=O)c3ccccc3C2=O)c1
inactive: [1] 17.9 µM | [2] 14.2 µM | [3] 16.7 µM | [4] 15.8 µM | [5] 16 µM | [6] 6.22 µM | [7] 18.5 µM | [8] 15.8 µM | [9] 18 µM | [10] 29.4 µM | [11] 15.9 µM | [12] 16.6 µM | [13] 17.5 µM | [14] 14.4 µM | [15] 17.9 µM | [16] 17.5 µM

CSc1nc2c(c(=O)[nH]1)N=C(c1ccccc1)CC(c1ccccc1)N2 (stereo not drawn)
inactive: [1] 38.8 µM | [2] 56.5 µM | [3] 20.7 µM | [4] 24.4 µM | [5] 50.6 µM | [6] 23.4 µM | [7] 22.9 µM | [8] 39.1 µM | [9] 23.2 µM | [10] 33.6 µM | [11] 55.1 µM | [12] 50.8 µM | [13] 29.6 µM | [14] 11.7 µM | [15] 13.4 µM | [16] 34.7 µM

CC(C)/C(Cl)=N\OC(=O)Nc1cccc(Cl)c1
inactive: [1] > 46 µM | [2] 13.6 µM | [3] 14.8 µM | [4] 10.6 µM | [5] 16.9 µM | [6] 11.6 µM | [7] 1.71 µM | [8] > 100 µM | [9] 18.9 µM | [10] > 43.9 µM | [11] 15.9 µM | [12] 2.97 µM | [13] 18.1 µM | [14] 13.9 µM | [15] 13.7 µM | [16] 36.1 µM

Cc1nn(C(=O)c2ccncc2)c2c1C(c1ccccc1O)SC(=N)N2 (stereo not drawn)
inactive: [1] > 10 µM | [2] > 10 µM | [3] > 10 µM | [4] > 10 µM | [5] > 10 µM | [6] > 10 µM | [7] > 10 µM | [8] > 10 µM | [9] > 10 µM | [10] > 10 µM | [11] > 10 µM | [12] > 10 µM | [13] > 10 µM | [14] > 10 µM | [15] > 10 µM | [16] > 10 µM

CCOP(=O)(OCC)OC1c2[nH]ccc2-c2cc(C(=O)OC)[nH]c2C1OC (stereo not drawn)
inactive: [1] 87.3 µM | [2] > 100 µM | [3] > 100 µM | [4] > 100 µM | [5] 82 µM | [6] > 100 µM | [7] 62.1 µM | [8] > 100 µM | [9] > 100 µM | [10] > 100 µM | [11] 66.8 µM | [12] > 100 µM | [13] > 100 µM | [14] 89.3 µM | [15] 56.8 µM | [16] > 100 µM

N#CC1=C(N)N2C(=O)/C(=C/c3ccccc3O)N=C2S1
inactive: [1] > 100 µM | [2] > 100 µM | [3] 86.3 µM | [4] > 100 µM | [5] > 100 µM | [6] > 100 µM | [7] 20.8 µM | [8] > 100 µM | [9] 28.8 µM | [10] > 100 µM | [11] > 100 µM | [12] > 100 µM | [13] 68.1 µM | [14] 32.9 µM | [16] > 100 µM

CN(/N=C/c1ccccc1C(=O)O)C1=NCCCCN1
inactive: [1] > 100 µM | [2] > 100 µM | [3] > 100 µM | [4] > 100 µM | [6] > 100 µM | [7] > 100 µM | [8] > 100 µM | [9] > 100 µM | [10] > 100 µM | [11] > 100 µM | [12] > 100 µM | [13] > 100 µM | [14] > 100 µM | [15] > 100 µM | [16] > 100 µM

CSC(=S)Nc1cc(C)ccn1
inactive: [1] > 100 µM | [2] > 100 µM | [3] > 100 µM | [4] 60.5 µM | [5] > 100 µM | [6] 61.4 µM | [7] > 100 µM | [8] > 100 µM | [9] > 100 µM | [10] > 100 µM | [11] > 100 µM | [12] > 100 µM | [13] 70.5 µM | [14] 29 µM | [15] 85.9 µM | [16] 76.7 µM

CCOc1ccc2nc3cc(/N=N/c4ccc(N)nc4N)ccc3c(N)c2c1
inactive: [1] 3.75 µM | [2] 19.1 µM | [3] 2.24 µM | [4] > 88.1 µM | [5] 15.6 µM | [6] 4.45 µM | [7] 1.95 µM | [8] 1.67 µM | [9] 2.05 µM | [10] 7 µM | [11] 3.57 µM | [12] 2.51 µM | [13] 1.66 µM | [14] 1.41 µM | [15] 21.3 µM | [16] 22.6 µM

O=[N+]([O-])c1cnc(N(CCO)CCO)s1
active: [14] < 0.01 µM
inactive: [1] > 100 µM | [2] > 100 µM | [3] > 100 µM | [4] > 100 µM | [5] > 100 µM | [6] > 100 µM | [7] > 100 µM | [8] > 100 µM | [9] > 100 µM | [10] > 100 µM | [11] > 100 µM | [12] > 100 µM | [13] > 100 µM | [15] > 100 µM | [16] > 100 µM

C/C=C/[P+](c1ccccc1)(c1ccccc1)c1ccccc1
active: [2] 0.295 µM | [3] 0.35 µM | [6] 0.541 µM | [7] 0.78 µM | [8] 0.299 µM | [11] 0.962 µM | [12] 0.48 µM | [13] 0.433 µM
inactive: [1] 3.03 µM | [4] > 100 µM | [5] 1.29 µM | [9] 1.48 µM | [10] 1.42 µM | [14] 3.48 µM | [15] 1.36 µM | [16] 2.26 µM

COc1ccc(/C=C2\N/C(=N/N)N=C2Cl)cc1
inactive: [1] > 100 µM | [2] > 100 µM | [3] > 100 µM | [4] > 100 µM | [5] > 100 µM | [6] > 100 µM | [7] > 100 µM | [8] > 100 µM | [9] > 100 µM | [10] > 100 µM | [11] > 100 µM | [12] > 100 µM | [13] > 100 µM | [14] > 100 µM | [16] > 100 µM

CC(C)=CCC/C(C)=C/Cc1c2c(c3oc(-c4ccc(O)c(O)c4)c(O)c(=O)c3c1O)C=CC(C)(C)O2
inactive: [1] 4.45 µM | [2] 5.22 µM | [3] 5.02 µM | [4] 5.32 µM | [5] 4.37 µM | [7] 1.68 µM | [8] 5.85 µM | [9] 1.79 µM | [10] 2.57 µM | [11] 5.16 µM | [13] 2.57 µM | [14] 5.22 µM | [15] 3.37 µM | [16] 5.62 µM
active: [6] 0.665 µM

CC(=O)OC12CC[N+]3(C)CCCCC3C1=Nc1ccccc12 (stereo not drawn)
inactive: [1] > 100 µM | [2] > 100 µM | [3] > 100 µM | [4] > 100 µM | [5] > 100 µM | [6] > 100 µM | [7] > 100 µM | [8] > 100 µM | [9] > 100 µM | [10] > 100 µM | [11] > 100 µM | [12] > 100 µM | [13] > 100 µM | [14] > 100 µM | [15] > 100 µM | [16] > 100 µM

C=C1C(=O)O[C@@H]2/C=C(/C)[C@@H](OC(C)=O)C[C@@H](O)/C(C)=C\[C@@H](OC(=O)[C@]3(C)O[C@@H]3C)[C@@H]12
inactive: [1] 40.6 µM | [2] 15.7 µM | [3] 15.7 µM | [4] 46.6 µM | [5] 10.9 µM | [6] 2.86 µM | [7] 2.39 µM | [8] 47.4 µM | [9] 21.2 µM | [10] 45.8 µM | [11] 17.6 µM | [12] 5.98 µM | [13] 3.89 µM | [14] 19.5 µM | [15] 26.3 µM | [16] 50.9 µM

C[C@@H]1C[C@H](O)[C@]2(O)O[C@@H]3C[C@@]4(C=O)[C@@H](CC[C@@H]5[C@@H]4CC[C@]4(C)[C@@H](C6=CC(=O)OC6)CC[C@]54O)C[C@H]3O[C@@H]2O1 [CALOTROPIN]
active: [1] 0.0244 µM | [2] 0.0592 µM | [3] 0.0692 µM | [4] 0.0206 µM | [5] 0.112 µM | [6] 0.0167 µM | [7] 0.0397 µM | [8] 0.083 µM | [9] 0.0212 µM | [10] 0.0351 µM | [11] 0.0234 µM | [12] 0.0247 µM | [13] 0.0193 µM | [14] 0.0689 µM | [15] 0.0187 µM | [16] 0.0372 µM
